Results: patent US10953237B2, “Methods of providing skin care using phototherapy” (InDerm, priority 2015, dated 2021)

Tested on: human epidermal keratinocytes
Assay: Wound repair (scratch wound closure) in keratinocyte culture
Type: cell-based
Procedure: The cells were cultured in a 24-well box (20 to 30 000 cells per well). At confluence, a “wound” was made at the center of the well using an “Essen Woundmaker” (Essen Bioscience, Ann Arbor, USA). After rinsing the wells with PBS to remove detached cells, the optional test agent was applied and illumination was started.
Cell migration was followed by two types of instrumentation, (i) videomicroscopy or (ii) Incucyte (Essen Bioscience): whereby a photo from the culture well is recorded every 30 minutes or every hour over a period of 48 hours.
Healing of wounds was studied by dynamic microscopy using a Nikon Eclipse Ti microscope allowing the taking of pictures at intervals of 30 minutes for 24 hours on primary cultures of human fibroblasts and keratinocytes. In this way, it was possible to assess the level of healing.
Incucyte is a device for visualizing and quantifying cell migration in a CO2 incubator at 37° C. The device is used with the Essen Woundmaker. The equipment was calibrated to produce wounds in cell cultures with high reproducibility. The device featured integrated processing software acquisition and image analysis allowing for quantification of the migration rate of cells.
The setup of this experiment was as described in the Materials and Methods Section herein above. […]

CCCCCCCCCCCCCCCC(=O)O[C@@H]1C[C@@H](C(=O)O)N(C(=O)CCCCCCCCCCCCCCC)C1 [DPHP, Dipalmitoylhydroxyproline]
effect on skin wound repair (DPHP serum in combination with 3-LED lighting, keratinocytes (FIG. 4)): positive effect
time to 45% wound closure (serum (0.175 wt. % DPHP) added at 0.05 wt % of medium, with 3 LEDs 520, 660, 780 nm for 15 seconds, instead of 10 hrs): 6 h
